Data published in patent US6514997B2, “Antipicornaviral compounds and compositions, their pharmaceutical uses, and materials for their synthesis” (Agouron Pharmaceuticals, Inc., priority 1999, dated 2003).
Read-outs that look alike come from different tables or passages of the source.

Experiments:
coxsackievirus B2 (CVB2) = test: Anticoxsackieviral cell culture assay (EC50), CVB2; type: cell-based; conditions: Enterovirus B
HRV-14 = test: Antirhinoviral H1-HeLa cell culture assay (XTT cell protection, EC50), HRV-14; type: cell-based, human rhinovirus (HRV) serotype-14 in H1-HeLa cells; conditions: Rhinovirus B, HRV14, H1-HeLa
Procedure, shortened: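 H1-HeLa cells were infected with HRV-14 at m.o.i. 0.13, or mock-infected, and incubated with compound for two days. Cell protection was read by XTT/PMS formazan absorbance at 450/650 nm to give EC50. CC50 came from mock-infected cells, and TI = CC50/EC50.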

echovirus 9 (ECHO-9) = test: Anti-echoviral cell culture assay (EC50), ECHO-9; type: cell-based; conditions: Enterovirus B
[1] = tested on: Coxsackievirus type A-21 (CAV-21); test: Anticoxsackieviral cell culture assay (XTT, EC50), CAV-21; type: cell-based, coxsackievirus A-21 in H1-HeLa cells; conditions: Coxsackievirus
Procedure, shortened: (§1)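 H1-HeLa cells infected with CAV-21 (m.o.i. 0.025) or CVB3 (m.o.i. 0.075), plated at 4×10^4 cells/well with test compound. Cell protection read by XTT/PMS formazan at 450/650 nm after 1 day (CVB3) or 2 days (CAV-21). TI = CC50/EC50.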

[2] = tested on: strains of human rhinovirus (HRV); test: Antirhinoviral H1-HeLa cell culture assay (XTT cell protection, EC50), other HRV strains; type: cell-based, human rhinovirus in H1-HeLa cells; conditions: read-out: EC50
Procedure, shortened: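 H1-HeLa cells infected, or mock-infected, were incubated with compounds for two days. Cell protection measured by XTT/PMS formazan absorbance at 450/650 nm; TI taken as CC50 divided by EC50.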

[3] = tested on: Coxsackievirus type B3 (CVB3); test: Anticoxsackieviral cell culture assay (XTT, EC50), CVB3; type: cell-based, coxsackievirus B3 in H1-HeLa cells
Procedure, shortened: as §1

coxsackievirus B5 (CVB5) = test: Anticoxsackieviral cell culture assay (EC50), CVB5; type: cell-based; conditions: Enterovirus B
[4] = Cytotoxicity (CC50) in mock-infected H1-HeLa cells, XTT dye reduction; type: cell-based, human; conditions: human, H1-HeLa cells; for CC50: line of CVB2; for CC50 at 1 day: line of CVB3
Procedure, shortened: (§2)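 H1-HeLa cells mock-infected, read by XTT/PMS formazan at 450/650 nm.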

H1-HeLa cells = test: as above; type: cell-based, human
Procedure, shortened: as §2

[5] = Human rhinovirus sp., H1-HeLa, HRV-Hanks
[6] = Human rhinovirus sp., HRV3, H1-HeLa, HRV-3
[7] = Human rhinovirus sp., HRV9, H1-HeLa, HRV-9
[8] = Human rhinovirus sp., HRV11, H1-HeLa, HRV-11
[9] = Human rhinovirus sp., HRV13, H1-HeLa, HRV-13
[10] = Human rhinovirus sp., HRV16, H1-HeLa, HRV-16
[11] = Human rhinovirus sp., HRV19, H1-HeLa, HRV-19
[12] = Human rhinovirus sp., HRV25, H1-HeLa, HRV-25
[13] = Human rhinovirus sp., HRV39, H1-HeLa, HRV-39
[14] = Human rhinovirus sp., HRV78, H1-HeLa, HRV-78
[15] = Human rhinovirus sp., HRV87, H1-HeLa, HRV-87
[16] = uninfected (mock-infected), line of CAV-21
[17] = Human rhinovirus sp., HRV10, H1-HeLa, HRV-10

SMILES | EC50 (coxsackievirus B2 (CVB2)) [nM] | EC50 (HRV-14) [nM] | EC50 (echovirus 9 (ECHO-9)) [nM] | EC50 [1] [nM] | EC50 ([2]; H1-HeLa, HRV-2) [nM] | EC50 [2, 6] [nM] | EC50 [2, 7] [nM] | EC50 [2, 10] [nM] | EC50 [2, 12] [nM] | EC50 [2, 13] [nM] | EC50 [3] [nM] | EC50 (coxsackievirus B5 (CVB5)) [nM] | CC50 at 2 days ([4]; mock-infected, line of HRV-14) [µM] | CC50 at 2 days [4, 16] [µM] | CC50 ([4]; uninfected (mock-infected)) [µM] | CC50 at 1 day ([4]; uninfected (mock-infected)) [µM] | CC50 (H1-HeLa cells; line of CVB5) [µM] | CC50 (H1-HeLa cells; line of HRV-2) [µM] | CC50 (H1-HeLa cells; line of HRV-3) [µM] | CC50 (H1-HeLa cells; line of HRV-9) [µM] | also measured
CCOC(=O)/C=C/[C@H](C[C@@H]1CCNC1=O)NC(=O)[C@H](Cc1ccc(F)c(F)c1)n1cccc(NC(=O)c2cc(C)on2)c1=O [Compound 33, trans-(2′S,3′″″S,4S)-4-(3′-(3″,4″-Difluorophenyl)-2′-{3′″-[(5″″-methylisoxazole-3″″-carbonyl)amino]-2′″-oxo-2′″H-pyridin-1′″-yl}propionylamino)-5-(2′″″-oxopyrrolidin-3′″″-yl)pent-2-enoic Acid Ethyl Ester] | 15 | 1 | 3 | 4 | 3 | 3 | 15 | 6 | 28 | 4 | 3 | 25 | > 10 | > 10 | > 10 | > 10 | > 10 | > 10 | > 10 | > 10 | EC50 ([2]; H1-HeLa, HRV-23): 3 nM; EC50 [2, 5]: 5 nM; EC50 [2, 8]: 3 nM; EC50 [2, 9]: 14 nM; EC50 [2, 11]: 4 nM; EC50 [2, 14]: 5 nM; EC50 [2, 15]: 5 nM; CC50 (H1-HeLa cells; line of HRV-11): > 10 µM; CC50 (H1-HeLa cells; line of HRV-13): > 10 µM; CC50 (H1-HeLa cells; line of HRV-16): > 10 µM; CC50 (H1-HeLa cells; line of HRV-19): > 10 µM; CC50 (H1-HeLa cells; line of HRV-23): > 10 µM; CC50 (H1-HeLa cells; line of HRV-25): > 10 µM; CC50 (H1-HeLa cells; line of HRV-39): > 10 µM; CC50 (H1-HeLa cells; line of HRV-78): > 10 µM; CC50 (H1-HeLa cells; line of HRV-87): > 10 µM; CC50 (H1-HeLa cells; line of HRV-Hanks): > 10 µM
C#CC[C@@H](C(=O)N[C@H](/C=C/C(=O)OC(C)(C)C)C[C@@H]1CCNC1=O)n1cccc(NC(=O)c2cc(C)on2)c1=O [Compound 41, trans-(2′S,3′″″S,4S)-4-[2′-(3″-{[1′″-(5″″-Methylisoxazol-3″″-yl)methanoyl]amino}-2′″-oxo-2′″H-pyridin-1′″-yl)pent-4″-ynoylamino]-5-(2′″″-oxopyrrolidin-3′″″-yl)pent-2-enoic Acid tert-Butyl Ester] | 213 | 62 | 106 | 593 | 155 | 54 | 562 | 416 | 829 | 445 | 117 | 199 | > 10 | > 10 | > 10 | > 10 | > 10 | > 10 | > 10 | > 10 | EC50 [2, 15]: 60 nM; CC50 (H1-HeLa cells; line of HRV-16): > 10 µM; CC50 (H1-HeLa cells; line of HRV-25): > 10 µM; CC50 (H1-HeLa cells; line of HRV-39): > 10 µM; CC50 (H1-HeLa cells; line of HRV-87): > 10 µM
Cc1cc(C(=O)Nc2cccn([C@@H](Cc3ccc(F)c(F)c3)C(=O)N[C@H](/C=C/C(=O)OC(C)C)C[C@@H]3CCNC3=O)c2=O)no1 [Compound 48, trans-(2′S,3″″″S,4S)-4-[3′-(3″,4″-Difluorophenyl)-2′-(3′″-{[1″″-(5′″″-methylisoxazol-3′″″-yl)methanoyl]amino}-2″″-oxo-2″″H-pyridin-1″″-yl)propanoylamino]-5-(2″″″-oxopyrrolidin-3″″″-yl)pent-2-enoic Acid Isopropyl Ester] | 162 | 3 | 57 | 1120 | 48 | 33 | 109 | 36 | 100 | 44 | 187 | 178 | > 10 | > 10 | > 10 | > 10 | > 10 | > 10 | > 10 | > 10 | EC50 ([2]; H1-HeLa, HRV-1A): 132 nM; EC50 ([2]; H1-HeLa, HRV-23): 10 nM; EC50 [2, 5]: 3 nM; EC50 [2, 17]: 85 nM; EC50 [2, 8]: 3 nM; EC50 [2, 9]: 44 nM; EC50 [2, 11]: 9 nM; EC50 [2, 14]: 12 nM; CC50 (H1-HeLa cells; line of HRV-1A): > 10 µM; CC50 (H1-HeLa cells; line of HRV-10): > 10 µM; CC50 (H1-HeLa cells; line of HRV-11): > 10 µM; CC50 (H1-HeLa cells; line of HRV-13): > 10 µM; CC50 (H1-HeLa cells; line of HRV-16): > 10 µM; CC50 (H1-HeLa cells; line of HRV-19): > 10 µM; CC50 (H1-HeLa cells; line of HRV-23): > 10 µM; CC50 (H1-HeLa cells; line of HRV-25): > 10 µM; CC50 (H1-HeLa cells; line of HRV-39): > 10 µM; CC50 (H1-HeLa cells; line of HRV-78): > 10 µM; CC50 (H1-HeLa cells; line of HRV-Hanks): > 10 µM
C#CC[C@@H](C(=O)N[C@H](/C=C/C(=O)OC1CCC1)C[C@@H]1CCNC1=O)n1cccc(NC(=O)c2cc(C)on2)c1=O [Compound 53, trans-(2′S,3′″″S,4S)-4-[2′-(3″-{[1′″-(5″″-Methylisoxazol-3″″-yl)methanoyl]amino}-2′″-oxo-2′″H-pyridin-1′″-yl)pent-4″-ynoylamino]-5-(2′″″-oxopyrrolidin-3′″″-yl)pent-2-enoic Acid Cyclobutyl Ester] | 154 | 40 | 26 | 476 | 78 | 44 | 133 | 102 | 66 | 125 | 156 | 157 | > 10 | > 10 | > 10 | > 10 | > 10 | > 10 | > 10 | > 10 | EC50 ([2]; H1-HeLa, HRV-1A): 128 nM; EC50 ([2]; H1-HeLa, HRV-23): 45 nM; EC50 [2, 5]: 137 nM; EC50 [2, 17]: 37 nM; EC50 [2, 8]: 20 nM; EC50 [2, 9]: 157 nM; EC50 [2, 11]: 53 nM; EC50 [2, 14]: 40 nM; CC50 (H1-HeLa cells; line of HRV-1A): > 10 µM; CC50 (H1-HeLa cells; line of HRV-10): > 10 µM; CC50 (H1-HeLa cells; line of HRV-11): > 10 µM; CC50 (H1-HeLa cells; line of HRV-13): > 10 µM; CC50 (H1-HeLa cells; line of HRV-16): > 10 µM; CC50 (H1-HeLa cells; line of HRV-19): > 10 µM; CC50 (H1-HeLa cells; line of HRV-23): > 10 µM; CC50 (H1-HeLa cells; line of HRV-25): > 10 µM; CC50 (H1-HeLa cells; line of HRV-39): > 10 µM; CC50 (H1-HeLa cells; line of HRV-78): > 10 µM; CC50 (H1-HeLa cells; line of HRV-Hanks): > 10 µM
